Test results from patent US7211585B2, “5-HT7 receptor antagonists” (Laboratorios del Dr. Esteve, S.A., priority 2004, dated 2007).
Structures can show the parent of a compound that is named as a salt.

Target: T1, Cloned Human Serotonin Receptor, subtype 7 (h5HT7) (Homo sapiens, UniProt P34969)
T1 construct: purchased PerkinElmer 6120512; host or cells: CHO cells (membranes coated on Basic FlashPlate, Cat. SMP200)
Assay: Radioligand binding assay, cloned human 5-HT7 receptor in CHO cells, [125I]LSD, Flashplate
Conditions: h5HT7 expressed in CHO cells; [125I]LSD 0.82 nM; triplicate determinations; read-out: 5-HT7 IC-50
Method: Biological Assays Radioligand Binding
Radioligand binding assays were performed using the Cloned Human Serotonin Receptor, subtype 7 (h5HT7), expressed in CHO cells, coated on Flashplate (Basic FlashPlate Cat.: SMP200) from PerkinElmer (Cat.: 6120512). The protocol assay was essentially the recommended protocol in the Technical Data Sheet by PerkinEmer Life and Analytical Sciences. The Mass membrane protein/well was typically 12 μg and the Receptor/well was about 9–10 fmoles. The Flashplate were let equilibrate at room temperature for one hour before the addition of the components of the assay mixture. The binding buffer was: 50 mM Trish-CHl, pH 7.4, containing 10 mM MgCl2, 0.5 mM EDTA and 0.5% BSA. The radioligand was [^125I]LSD at a final concentration of 0.82 nM. Nonspecific binding was determined with 50 μM of Clozapine. The assay volume was 25 μl. TopSeal-A were applied onto Flashplate microplates and they were incubated at room temperature for 240 minutes in darkness. The radioactivity were quantified by liquid scintillation spectrophotometry (Wallac 1450 Microbeta Trilux) with a count delay of 4 minutes prior to counting and a counting time of 30 seconds per well. Competition binding data were analyzed by using the LIGAND program (Munson and Rodbard, LIGAND: A versatile, computerized approach for characterization of ligand-binding systems. Anal. Biochem. 107: 220–239, 1980) and assays were performed in triplicate determinations for each point.

T1 sequence (P34969 whole entry): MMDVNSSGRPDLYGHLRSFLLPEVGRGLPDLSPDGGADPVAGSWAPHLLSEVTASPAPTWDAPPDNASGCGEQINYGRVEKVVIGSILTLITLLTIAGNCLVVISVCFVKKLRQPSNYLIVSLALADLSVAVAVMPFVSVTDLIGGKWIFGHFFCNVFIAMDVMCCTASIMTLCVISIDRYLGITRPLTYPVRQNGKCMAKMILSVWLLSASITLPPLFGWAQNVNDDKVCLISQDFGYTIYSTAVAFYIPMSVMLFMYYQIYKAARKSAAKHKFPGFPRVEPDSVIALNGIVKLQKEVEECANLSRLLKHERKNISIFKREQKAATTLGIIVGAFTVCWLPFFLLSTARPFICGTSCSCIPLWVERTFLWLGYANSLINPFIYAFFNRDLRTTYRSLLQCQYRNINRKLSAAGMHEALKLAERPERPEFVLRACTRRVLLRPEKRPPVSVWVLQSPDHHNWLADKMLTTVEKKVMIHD

Row | IC50 | SMILES
1 | 59.2 nM | O=S(=O)(NCCCCN1CCc2ccccc2C1)c1ccc2ccccc2c1 [Compound 2, Naphthalene-2-sulfonic acid [4-(3,4-dihydro-1H-isoquinolin-2-yl)-butyl]-amide hydrochloride]
2 | 33.2 nM | O=S(=O)(NCCCCN1CCc2ccccc2C1)c1ccccc1 [Compound 5, N-[4-(3,4-Dihydro-1H-isoquinolin-2-yl)-butyl]-benzenesulfonamidehydrochloride]
3 | 31.1 nM | COc1cc2c(cc1OC)CN(CCCCNS(=O)(=O)c1cc(Cl)c(F)cc1F)CC2 [Compound 116, 5-Chloro-N-[4-(6,7-dimethoxy-3,4-dihydro-1H-isoquinolin-2-yl)-butyl]-2,4-difluoro-benzenesulfonamide]
4 | 39.2 nM | COc1cc2c(cc1OC)CN(CCCCNS(=O)(=O)c1ccccc1Cl)CC2 [Compound 118, 2-Chloro-N-[4-(6,7-dimethoxy-3,4-dihydro-1H-isoquinolin-2-yl)-butyl]-benzenesulfonamidehydrochloride]
5 | 60.8 nM | O=S(=O)(NCCCCN1CCc2ccccc2C1)c1cc(F)ccc1F [Compound 140, N-[4-(3,4-Dihydro-1H-isoquinolin-2-yl)-butyl]-2,5-difluoro-benzenesulfonamidehydrochloride]
6 | 80.4 nM | O=S(=O)(NCCCCN1CCc2ccccc2C1)c1cc(F)c(F)cc1F [Compound 142, N-[4-(3,4-Dihydro-1H-isoquinolin-2-yl)-butyl]-2,4,5-trifluoro-benzenesulfonamidehydrochloride]
7 | 39 nM | COc1cc2c(cc1OC)CN(CCCCNS(=O)(=O)c1cc(F)c(F)cc1Cl)CC2 [Compound 151, 2-Chloro-N-[4-(6,7-dimethoxy-3,4-dihydro-1H-isoquinolin-2-yl)-butyl]-4,5-difluoro-benzenesulfonamidehydrochloride]
8 | 74.4 nM | O=S(=O)(NCCCCN1CCc2ccccc2C1)c1c(F)cc(F)cc1Br [Compound 160, 2-Bromo-N-[4-(3,4-dihydro-1H-isoquinolin-2-yl)-butyl]-4,6-difluoro-benzenesulfonamidehydrochloride]
9 | 37.3 nM | COc1cc2c(cc1OC)CN(CCCCNS(=O)(=O)c1cccc(C)c1)CC2 [Compound 210, N-[4-(6,7-Dimethoxy-3,4-dihydro-1H-isoquinolin-2-yl)-butyl]-3-methyl-benzenesulfonamidehydrochloride]
10 | 67.4 nM | COc1cc2c(cc1OC)CN(CCCCNS(=O)(=O)c1cc(C)c(Cl)cc1C)CC2 [Compound 220, 4-Chloro-N-[4-(6,7-dimethoxy-3,4-dihydro-1H-isoquinolin-2-yl)-butyl]-2,5-dimethyl-benzenesulfonamidehydrochloride]
11 | 68.4 nM | COc1ccc(OC)c(S(=O)(=O)NCCCCN2CCc3cc(OC)c(OC)cc3C2)c1 [Compound 235, N-[4-(6,7-Dimethoxy-3,4-dihydro-1H-isoquinolin-2-yl)-butyl]-2,5-dimethoxy-benzenesulfonamidehydrochloride]
12 | 57.2 nM | COc1cc2c(cc1OC)CN(CCCCNS(=O)(=O)c1ccccc1Br)CC2 [Compound 257, 2-Bromo-N-[4-(6,7-dimethoxy-3,4-dihydro-1H-isoquinolin-2-yl)-butyl]-benzenesulfonamidehydrochloride]
